Reference: ChEMBL document CHEMBL4373720, “Discovery of Conformationally Restricted Human Glutaminyl Cyclase Inhibitors as Potent Anti-Alzheimer's Agents by Structure-Based Design” (J Med Chem, 2019)
Calls of active or inactive are those of the source. The rule behind the calls is not given here.

How the values were obtained:
[1] = Cytotoxicity against mouse HT22 cells assessed as cell viability at 10 uM measured after 18 hrs by MTT assay relative to control; type: cell-based, HT-22; conditions: read-out: Activity
Mus musculus [2] = organism: Mus musculus; assay: animal or person; conditions: ICR, central, 24 h, read-out: INH
hERG (KCNH2) = hERG (KCNH2) (Homo sapiens, UniProt Q12809); assay: Displacement of tracer red from human ERG at 10 uM by fluorescence polarization assay relative to control; conditions: probe tracer red
Mus musculus [3] = organism: Mus musculus; conditions: ICR, 25 mg/kg
[4] = Stability in mouse liver microsomes assessed as parent compound remaining measured after 30 mins; type: ADME, Microsome; conditions: read-out: Stability
[5] = Stability in human liver microsomes assessed as parent compound remaining measured after 30 mins; type: ADME, Microsome; conditions: read-out: Stability
Mus musculus [6] = assay: Neuroprotection in human amyloid beta (3 to 40 residues)-induced ICR mouse model of Alzheimer's disease assessed as inhibition of human amyloid beta N3pE-40 level in brain at 25 mg/kg, ip measured after 24 hrs by sandwich ELISA relative to control; type: functional

hERG (KCNH2), sequence (Q12809 whole entry): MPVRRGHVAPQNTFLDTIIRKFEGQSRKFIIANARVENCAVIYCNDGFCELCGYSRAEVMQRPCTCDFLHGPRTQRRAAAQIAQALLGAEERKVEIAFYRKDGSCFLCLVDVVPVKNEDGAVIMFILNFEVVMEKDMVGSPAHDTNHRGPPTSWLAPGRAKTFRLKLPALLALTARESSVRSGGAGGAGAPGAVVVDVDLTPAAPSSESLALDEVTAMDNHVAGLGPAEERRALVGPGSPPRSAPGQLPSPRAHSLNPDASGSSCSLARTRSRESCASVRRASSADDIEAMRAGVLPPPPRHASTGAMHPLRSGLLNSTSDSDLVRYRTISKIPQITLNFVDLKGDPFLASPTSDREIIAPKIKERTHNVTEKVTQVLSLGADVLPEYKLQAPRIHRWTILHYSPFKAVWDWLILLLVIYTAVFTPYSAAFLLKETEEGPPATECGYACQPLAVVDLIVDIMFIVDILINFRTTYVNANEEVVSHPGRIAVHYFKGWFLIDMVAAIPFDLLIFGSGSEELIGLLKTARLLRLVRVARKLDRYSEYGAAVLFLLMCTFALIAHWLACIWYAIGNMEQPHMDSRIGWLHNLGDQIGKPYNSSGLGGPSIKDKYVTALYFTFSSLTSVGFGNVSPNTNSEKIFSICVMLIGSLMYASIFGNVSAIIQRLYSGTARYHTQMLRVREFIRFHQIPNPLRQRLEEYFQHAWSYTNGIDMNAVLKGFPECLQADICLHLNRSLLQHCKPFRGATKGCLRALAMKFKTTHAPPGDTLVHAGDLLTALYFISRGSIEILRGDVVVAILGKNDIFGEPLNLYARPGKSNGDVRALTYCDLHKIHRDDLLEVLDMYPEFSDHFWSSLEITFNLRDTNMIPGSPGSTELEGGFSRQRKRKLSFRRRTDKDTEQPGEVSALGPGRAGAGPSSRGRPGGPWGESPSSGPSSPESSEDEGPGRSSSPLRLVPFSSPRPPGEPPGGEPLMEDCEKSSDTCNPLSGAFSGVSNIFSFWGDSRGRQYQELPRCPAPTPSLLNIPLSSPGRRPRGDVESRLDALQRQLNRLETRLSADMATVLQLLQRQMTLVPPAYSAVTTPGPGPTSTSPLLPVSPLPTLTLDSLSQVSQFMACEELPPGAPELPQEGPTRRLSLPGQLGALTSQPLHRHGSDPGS

SMILES | viability at 18 h, 10 µM [1] [%] | inhibition in vivo at 25 mg/kg (Mus musculus [2]) [%] | inhibition at 10 µM (hERG (KCNH2)) [%] | inhibition (Mus musculus [3]) | remaining at 0.5 h [4] [%] | remaining at 0.5 h [5] [%] | inhibition in vivo at 25 mg/kg (Mus musculus [6]) [%]
COc1ccc(N(Cc2ccncc2)C(=S)NCCCn2cncc2C)cc1OC | 100 | 11.6 | 32.3 | – | – | – | –
COc1ccc(N(C(=S)NCCCn2cncc2C)C(C)C)cc1OC | 100 | 6 | 46.3 | – | – | – | –
COc1ccc(N(CCCCc2ccnc(NCCN)c2)C(=O)NCCCn2cncc2C)cc1OC | 82.2 | 13.7 | 40.8 | – | – | – | –
COc1ccc(N(Cc2cccc(F)c2)C(=S)NCCCn2cncc2C)cc1OC | 91.7 | 6.66 | 77.6 | – | – | – | –
COc1ccc(N(CC(C)C)C(=O)NCCCn2cncc2C)cc1OC | 100 | – | 23.7 | inactive | – | – | –
COc1ccc(N(C(=S)NCCCn2cncc2C)C2CCC2)cc1OC | 86.7 | – | 11.5 | inactive | – | – | –
COc1ccc(N(Cc2ccc(F)cc2)C(=S)NCCCn2cncc2C)cc1OC | 100 | – | 83.5 | inactive | – | – | –
COc1ccc(N(Cc2ccccc2)C(=S)NCCCn2cncc2C)cc1OC | 80.4 | 15.3 | 71.5 | – | – | – | –
COc1ccc(N(C(=S)NCCCn2cncc2C)C2CCCC2)cc1OC | 81.7 | 1.17 | 31.8 | – | – | – | –
COc1ccc(N(C(=O)NCCCn2cncc2C)C2CCCCC2)cc1OC | 88.6 | – | 12.2 | inactive | – | – | –
COc1ccc(N(C(=S)NCCCn2cncc2C)C2CCCCC2)cc1OC | 78.3 | 4.01 | 59.4 | – | – | – | –
COc1ccc(N(CC(C)C)C(=S)NCCCn2cncc2C)cc1OC | 100 | – | 39.9 | inactive | – | – | –
COc1ccc(N(Cc2cccc(Cl)c2)C(=S)NCCCn2cncc2C)cc1OC | 88.2 | – | 86 | inactive | – | – | –
COc1ccc(N(CC2CCCC2)C(=O)NCCCn2cncc2C)cc1OC | 100 | 2.96 | 29.6 | – | – | – | –
COc1ccc(N(Cc2ccc(F)cc2)C(=O)NCCCn2cncc2C)cc1OC | 90.7 | – | 40.6 | inactive | – | – | –
COc1ccc(N(Cc2ccc(Cl)cc2)C(=S)NCCCn2cncc2C)cc1OC | 100 | 0.73 | 86.8 | – | – | – | –
COc1ccc(N(Cc2cccnc2)C(=S)NCCCn2cncc2C)cc1OC | 89.3 | 5.31 | 34.5 | – | – | – | –
COc1ccc(N(CC2CCCC2)C(=S)NCCCn2cncc2C)cc1OC | 100 | 2.96 | 60 | – | – | – | –
COc1ccc(N(Cc2cccnc2)C(=O)NCCCn2cncc2C)cc1OC | 100 | 26 | 33.2 | – | 12.8 | 44 | 22.9
COc1ccc(N(CCCCc2ccnc(N)c2)C(=O)NCCCn2cncc2C)cc1OC | 100 | 24.4 | 48 | – | 21.6 | 43.1 | 22.7
CCN(C(=S)NCCCn1cncc1C)c1ccc(OC)c(OC)c1 | 88.4 | – | – | inactive | – | – | –
